Legend:
[1] = tested on: 5×FAD+/− hippocampal CA1 neurons; assay: In vivo two-photon Ca2+ imaging of CA1 neurons (neuronal hyperactivity) in 5×FAD+/− mice; set-up: species or system mouse
Protocol: (§1) Adult genetically engineered mice, 5×FAD^+/− (Oakley et al., 2006), RyR2-E4872Q^+/− (EQ^+/−) (Chen et al., 2014), 5×FAD^+/−/RyR2-E4872Q^+/− (5×FAD^+/−/EQ^+/−), and wildtype (WT) littermates of both sexes were used. R-carvedilol (R-CV) (at doses of 0.8, 1.6 or 3.2 mg/kg/day), racemic carvedilol (3.2 mg/kg/day), and vehicle control (DMSO) were delivered to 5×FAD^+/− mice in drinking water for one month, starting at different ages before (2-3 months old) or after (3-4 months old) the occurrence of AD pathologies (Oakley et al., 2006). To assess the effects of genetically and pharmacologically limiting RyR2 open time on the prevention and rescue of AD deficits in different stages (early, moderate, and late) of AD progression, animals at different ages (from 2-15 months) were used. As reported (Oakley et al., 2006), there was an age-dependence of AD progression in the 5×FAD^+/− mice. No sex-dependent differences in AD progression in these mice was observed. For 2-photon Ca^2+ imaging experiments, 5×FAD, RyR2 WT, and RyR2 mutant mice were cross-bred with the heterozygous Thy1-GCaMP6f transgenic mice (Chen et al., 2012; Chen et al., 2013) (GP5.17, JAX 025393) to express the GCaMP6f Ca^2+ sensing probe (driven by the Thy1 promotor) in hippocampal neurons in each of the genotypes used.
To determine whether limiting RyR2 open time can suppress AD-associated neuronal hyperactivity in vivo, double heterozygous 5×FAD^+/−/E4872Q^+/− mice were crossed with the heterozygous Thy-1 GCaMP6f^+/− transgenic mice (GP5.17, JAX 025393) to introduce the GCaMP6f^+/− transgene into each of the four genotypes (driven by the Thy1 promotor). In vivo two-photon imaging of GCaMP6f-expressing CA1 pyramidal neurons in each of the four genotypes to monitor spontaneous Ca^2+ transients was performed.
Neuronal hyperactivity has been reported in anesthetized AD model mice in vivo using two-photon Ca^2 + imaging (Busche et al., 2008; Busche et al., 2012; Lerdkrai et al., 2018; Busche et al., 2019). To facilitate comparison, the same approach described originally by Busche et al. and used by others in the field (Busche et al., 2012; Busche et al., 2008; Delekate et al., 2014; Eichhoff and Garaschuk, 2011; Kim et al., 2016; Takano et al., 2007; Zott et al., 2019) was employed. Craniotomy was performed according to the protocol reported previously (Busche, 2018; Busche et al., 2012; Busche et al., 2008) with some modifications. […] The body temperature was monitored and controlled at 36.5-37.5° C. during the entire surgery and imaging procedure. […] Besides the core body temperature, the respiratory and pulse rate were continuously monitored (MouseOx plus. STARR Life Science Corp.). […]

[2] = tested on: RyR2-mediated Ca2+ release; assay: Ex vivo two-photon Ca2+ imaging of caffeine-induced Ca2+ release in CA1 neurons of brain slices from treated 5×FAD+/− mice; set-up: species or system mouse; details: CA1 pyramidal neurons in brain slices of 4-5 months old 5×FAD+/− mice treated for 1 month; caffeine 40 mM; vs DMSO-treated
[3] = tested on: subiculum pyramidal neurons of 5×FAD+/− mice; assay: Nissl staining, neuronal cell loss in 5×FAD+/− mice; assay type: in vivo, mouse; details: 6-7 months old 5×FAD+/− mice, pre-treatment 3.2 mg/kg/day for 1 month; vs DMSO
Protocol: as §1, with “genotypes used. […]” for “genotypes used.”

[4] = 3.2 mg/kg/day for one month, started at 2-3 or 3-4 months of age (both ages), vs vehicle pre-treated 5×FAD+/− mice

COc1ccccc1OCCNC[C@@H](O)COc1cccc2[nH]c3ccccc3c12 [R-carvedilol, R-(+)-carvedilol]
fraction of hyperactive neurons [1, 4]: significantly lower | mean frequency of spontaneous Ca2+ transients [1, 4]: significantly lower | overall spontaneous neuronal activity (cumulative probability analysis) [1, 4]: significantly lower | neuronal hyperactivity of 5×FAD+/− hippocampal CA1 neurons in vivo ([1]; 3.2 mg/kg/day in drinking water for one month, started at 2-3 months (before AD pathology) or 3-4 months (after) of age, vs DMSO vehicle): prevented and rescued | Caffeine-induced Ca2+ release [2]: markedly reduced | subiculum neuronal cell loss [3]: protected against

From patent US20230381139A1, “METHODS OF TREATING AND/OR PREVENTING ALZHEIMER’S DISEASE WITH R-CARVEDILOL” (priority 2020, published 2023)
